Test systems include CAKI-1 renal; COLO 205 colon; K-562 leukemia; NCI-H522 lung; NCI/ADR-RES ovarian; OVCAR-5 ovarian; SF-268 CNS; SNB-75 CNS; SW-620 colon; TK-10 renal.
Holding throughout (experiment): NCI-60 cell line screen, 48 h

Molecules are shown by their SMILES.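 How tested: cells in 96-well plates exposed to compound for 48 hours at five concentrations. At the TGI there is no net growth.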

For `CC(Cl)(CCC(Cl)C(C)(C)Cl)C(=O)CBr` (stereo not drawn), the TGI in the assay on CAKI-1 renal is 27.8 µM; in the assay on COLO 205 colon, 18.4 µM; in the assay on K-562 leukemia, more than 100 µM; in the assay with NCI-H522 lung, 3.94 µM; in the assay on NCI/ADR-RES ovarian, 74.2 µM; in the assay with OVCAR-5 ovarian it was 31.6 µM. Moreover, the TGI with SF-268 CNS amounted to 31.7 µM; in the assay with SNB-75 CNS, 26.5 µM; in the assay with SW-620 colon, 4.96 µM; in the assay with TK-10 renal, 24.1 µM.

Take `COc1ccc(N=C(C)C(C)=Nc2ccc(OC)cc2)cc1`: the TGI in the assay on CAKI-1 renal was more than 100 µM; with COLO 205 colon, 37.1 µM; in the assay with K-562 leukemia, more than 100 µM; in the assay on NCI-H522 lung, more than 100 µM; in the assay on NCI/ADR-RES ovarian, more than 100 µM; with OVCAR-5 ovarian, more than 100 µM. In addition, the TGI in the assay on SF-268 CNS, with SNB-75 CNS, with SW-620 colon and in the assay on TK-10 renal was more than 100 µM throughout.

With `COC(=O)[C@@H]1C=CCN1S(=O)(=O)c1ccc(C)cc1`, the TGI in the assay with CAKI-1 renal is 57.8 µM; with COLO 205 colon, more than 100 µM; in the assay on K-562 leukemia, more than 100 µM; in the assay with NCI-H522 lung, more than 100 µM; in the assay on NCI/ADR-RES ovarian, more than 100 µM; in the assay on OVCAR-5 ovarian, more than 100 µM. Moreover, the TGI in the assay on SF-268 CNS, with SNB-75 CNS, with SW-620 colon and in the assay on TK-10 renal was more than 100 µM each time.

For `CC(=O)N1CCOC12N=NC(C)(C)O2` (stereo not drawn), the TGI in the assay with CAKI-1 renal, with COLO 205 colon, with K-562 leukemia, with NCI-H522 lung, in the assay with NCI/ADR-RES ovarian and with OVCAR-5 ovarian was more than 100 µM throughout. In addition, the TGI with SF-268 CNS, in the assay on SNB-75 CNS, with SW-620 colon and in the assay with TK-10 renal was more than 100 µM throughout.

Turning to `C(=Nc1ccc(-c2nc3ccccc3s2)cc1)c1cccs1`, the TGI in the assay on CAKI-1 renal, in the assay with COLO 205 colon, in the assay on K-562 leukemia, in the assay with NCI-H522 lung, in the assay on NCI/ADR-RES ovarian and with OVCAR-5 ovarian was more than 100 µM in each case. Besides, the TGI was more than 100 µM in the assay on SF-268 CNS, more than 100 µM in the assay with SNB-75 CNS, more than 100 µM in the assay with SW-620 colon and 78 µM in the assay with TK-10 renal.

`C/C(CC(O)(C(F)(F)F)C(F)(F)F)=N\O`: the TGI with CAKI-1 renal, with COLO 205 colon, in the assay on K-562 leukemia, in the assay with NCI-H522 lung, in the assay on NCI/ADR-RES ovarian and in the assay on OVCAR-5 ovarian was more than 10 µM in each case. Also, the TGI with SF-268 CNS, in the assay on SNB-75 CNS, in the assay on SW-620 colon and in the assay with TK-10 renal was more than 10 µM each time.

As for `Cc1cc(NS(=O)(=O)c2ccc(Nc3c4ccccc4nc4c(C(=O)NC(CO)(CO)CO)cccc34)cc2)no1`, the TGI with CAKI-1 renal was more than 100 µM; in the assay with COLO 205 colon, more than 100 µM; with K-562 leukemia, more than 100 µM; in the assay on NCI-H522 lung, 34.4 µM; in the assay on NCI/ADR-RES ovarian, more than 100 µM; with OVCAR-5 ovarian, more than 100 µM. Besides, the TGI with SF-268 CNS was 60.6 µM; in the assay with SNB-75 CNS, 55.1 µM; in the assay on SW-620 colon, more than 100 µM; in the assay on TK-10 renal, 61.7 µM.

In the case of `CC12CC(c3ccccc3O1)C(C(=O)Nc1nccs1)C(=O)N2` (stereo not drawn), the TGI in the assay on CAKI-1 renal, with COLO 205 colon, in the assay with K-562 leukemia, in the assay with NCI-H522 lung, in the assay on NCI/ADR-RES ovarian and in the assay on OVCAR-5 ovarian was more than 100 µM in each case. The TGI with SF-268 CNS, in the assay with SNB-75 CNS, with SW-620 colon and in the assay with TK-10 renal was more than 100 µM each time.

Turning to `Nc1ccnc2c1ncn2[C@H]1C[C@H](O)[C@@H](CO)O1`, the TGI in the assay on CAKI-1 renal, in the assay on COLO 205 colon, with NCI-H522 lung, with NCI/ADR-RES ovarian, with OVCAR-5 ovarian and in the assay with SF-268 CNS was more than 100 µM throughout. Also, the TGI in the assay with SNB-75 CNS, with SW-620 colon and in the assay with TK-10 renal was more than 100 µM throughout.

With `C=CC(C)(C)/C(=C\CO[Si](C(C)C)(C(C)C)C(C)C)C(=O)N(C)c1ccccc1I`, the TGI came to 44 µM with CAKI-1 renal; 31.5 µM in the assay on COLO 205 colon; 19 µM with NCI-H522 lung; 37.6 µM with NCI/ADR-RES ovarian; 27.5 µM in the assay on OVCAR-5 ovarian; 24.5 µM with SF-268 CNS. Further, the TGI with SNB-75 CNS came out at 31.7 µM; in the assay with SW-620 colon, 26.1 µM; with TK-10 renal it was 26.2 µM.

Consider `C=CCCCN(C(=O)c1ccccc1)c1ccc(C(=O)OC)o1`, for which the TGI with CAKI-1 renal, with COLO 205 colon, with NCI-H522 lung, in the assay on NCI/ADR-RES ovarian, in the assay on OVCAR-5 ovarian and in the assay on SF-268 CNS was more than 100 µM in each case. Moreover, the TGI in the assay with SNB-75 CNS and in the assay on TK-10 renal was more than 100 µM each time.

With `C#CC(O)/C=C/C(O)CCCC(O)CC#CC(O)C#CCCCCC(O)/C=C/CCCC(=O)CCCCCCCCCCCCCCCC(O)C(O)C#CC(=O)O` (stereo not drawn), the TGI is more than 25 µM in the assay with CAKI-1 renal; more than 25 µM with COLO 205 colon; more than 25 µM with K-562 leukemia; 17.1 µM in the assay on NCI-H522 lung; more than 25 µM with NCI/ADR-RES ovarian; more than 25 µM in the assay with OVCAR-5 ovarian. Further, the TGI with SF-268 CNS, in the assay with SNB-75 CNS and in the assay with TK-10 renal was more than 25 µM each time.

Turning to `C=C1c2nc3ccccc3n2C=C(c2ccccc2)N1c1ccc(C)cc1`, the TGI in the assay with CAKI-1 renal, with COLO 205 colon, in the assay on K-562 leukemia, with NCI-H522 lung, in the assay with NCI/ADR-RES ovarian and in the assay with OVCAR-5 ovarian was more than 100 µM throughout. The TGI in the assay on SNB-75 CNS, in the assay with SW-620 colon and with TK-10 renal was more than 100 µM in each case.

Turning to `CC(C)(C)OC(=O)NCC(c1c[nH]c2ccccc12)c1c[nH]c2ccccc12`, the TGI in the assay with CAKI-1 renal is 29.1 µM; with COLO 205 colon, 29.1 µM; in the assay on NCI-H522 lung, 39.3 µM; in the assay with NCI/ADR-RES ovarian, 51.3 µM; in the assay with OVCAR-5 ovarian it was 31.4 µM; with SF-268 CNS it was 33.6 µM. Besides, the TGI with SNB-75 CNS turned out to be 28.1 µM; in the assay on SW-620 colon, 41 µM; with TK-10 renal, 28.9 µM.

(Values after PubChem BioAssay (NCI).)
